In one data set the target is T1, TRH-DE (Sus scrofa, UniProt A0A287AP33).
T1 construct: The inventor purified TRH-DE from porcine brain according to purification procedures previously published by Dr. K. Bauer; from tissue; host or cells: porcine brain (TRH-DE); bovine kidney (DPP-IV, gift from Dr. C. H. Williams)
Kind of data set: HPLC assay of peptide hydrolysis by TRH-DE (Glp production). The format is biochemical, porcine. Particulars: 1 mM peptide incubated with TRH-DE 18 h at 37° C., HPLC. Summed up: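 Porcine brain TRH-DE incubated with 1 mM peptide in 20 mM potassium phosphate, pH 7.5, 37 °C: screen with 0.8 μg enzyme for 18 h; rate microassays with 0.8-3.2 μg enzyme for 5 min to 18 h, in triplicate. Reactions stopped with TFA; Glp quantified by C-18 reverse-phase HPLC, UV 206 nm.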

In brackets after ≈: the same amount, converted by molar mass. Where a SMILES comes first, the peptide text is derived from it. [ ]: non-standard residue; d: D form. pGlu = O=C1CC[C@@H](C(=O)O)N1

A word on the solubility: it is the dissolved amount per volume that the medium holds.

T1 sequence (A0A287AP33 1-1066): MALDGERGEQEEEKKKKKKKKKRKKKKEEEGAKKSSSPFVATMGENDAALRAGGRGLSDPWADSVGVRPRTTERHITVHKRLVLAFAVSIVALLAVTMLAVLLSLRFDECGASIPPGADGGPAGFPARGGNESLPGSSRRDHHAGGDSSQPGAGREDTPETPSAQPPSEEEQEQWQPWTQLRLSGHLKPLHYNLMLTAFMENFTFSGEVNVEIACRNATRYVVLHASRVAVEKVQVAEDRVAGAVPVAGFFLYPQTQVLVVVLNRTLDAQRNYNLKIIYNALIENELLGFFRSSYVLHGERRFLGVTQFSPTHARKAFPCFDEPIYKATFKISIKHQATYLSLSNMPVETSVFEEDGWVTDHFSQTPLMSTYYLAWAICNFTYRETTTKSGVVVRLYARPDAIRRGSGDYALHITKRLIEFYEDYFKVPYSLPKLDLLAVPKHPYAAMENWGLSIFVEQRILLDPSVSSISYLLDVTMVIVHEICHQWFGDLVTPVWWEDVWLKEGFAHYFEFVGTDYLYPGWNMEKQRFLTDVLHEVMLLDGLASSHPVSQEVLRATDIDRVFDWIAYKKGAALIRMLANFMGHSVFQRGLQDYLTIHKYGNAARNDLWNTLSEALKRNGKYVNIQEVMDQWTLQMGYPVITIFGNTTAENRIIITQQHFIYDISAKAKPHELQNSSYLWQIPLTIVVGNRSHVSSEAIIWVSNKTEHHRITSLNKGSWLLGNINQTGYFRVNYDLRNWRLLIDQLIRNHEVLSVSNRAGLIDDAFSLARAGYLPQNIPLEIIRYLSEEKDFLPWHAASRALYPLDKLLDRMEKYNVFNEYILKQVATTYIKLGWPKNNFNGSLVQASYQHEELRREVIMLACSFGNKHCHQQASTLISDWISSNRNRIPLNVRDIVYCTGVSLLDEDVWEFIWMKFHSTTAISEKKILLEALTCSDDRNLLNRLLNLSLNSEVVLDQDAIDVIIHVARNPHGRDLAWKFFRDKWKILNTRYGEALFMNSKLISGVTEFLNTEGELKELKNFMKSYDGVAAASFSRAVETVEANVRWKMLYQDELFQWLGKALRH

For the compound `NC(=O)C[C@H](NC(=O)[C@@H]1CCC(=O)N1)C(=O)N1CCC[C@H]1C(N)=O` [Glp-Asn-ProNH2, pyroglutamyl-asparaginyl-prolineamide] ([pGlu]-Asn-Pro-NH2), on TRH-DE, the “hydrolysis by TRH-DE (release of Glp)” value was “No detectable Glp”. Besides, in the data set “physchem”, the concentration in solution (solubility) was 1000 µg/mL (≈ 2950 µM).

The values are drawn from patent US7378397B2 (The Provost, Fellows and Scholars of the College of the …, priority 2000, dated 2008).
